Laboratory results from ChEMBL document CHEMBL1136085, “Structure-activity study of novel tricyclic benzazepine arginine vasopressin antagonists” (Bioorg Med Chem Lett, 2003).

Key:
[1] = molecular target: Vasopressin V2 receptor (Rattus norvegicus, UniProt Q00788); assay: Inhibition of [3H]AVP binding to Dawley rat kidney medullary vasopressin V2 receptor.
[2] = molecular target: T1, Vasopressin V1a receptor (Rattus norvegicus, UniProt P30560); assay: Inhibition of [3H]AVP binding to Dawley rat hepatic vasopressin V1a receptor.
[3] = test system: Rattus norvegicus; assay: Aquaretic effect was measured by the amount of urine collected after 4 hr at a dose of 10 mg/kg ip in 2 Dawley rats; type: functional; conditions: route intraperitoneal
[4] = test system: Rattus norvegicus; assay: Aquaretic effect was measured by the amount of urine collected after 4 hr at a dose of 30 mg/kg ip in 6 Dawley rats; type: functional; conditions: route intraperitoneal
[5] = molecular target: Vasopressin V2 receptor (Rattus norvegicus) (UniProt Q00788); assay: Compound was tested for the inhibition of [3H]AVP binding to Dawley rat kidney medullary Vasopressin V2 receptor; conditions: concentration not given here
[6] = molecular target: T1, Vasopressin V1a receptor; assay: Compound was tested for the inhibition of [3H]AVP binding to Dawley […]
[7] = molecular target: Vasopressin V1a receptor (Rattus norvegicus) (UniProt P30560); assay: Compound was tested for the inhibition of [3H]AVP binding to Dawley rat hepatic Vasopressin V1a receptor; conditions: concentration not given here
Chain of Vasopressin V1a receptor (Rattus norvegicus) (P30560 whole entry, looked up): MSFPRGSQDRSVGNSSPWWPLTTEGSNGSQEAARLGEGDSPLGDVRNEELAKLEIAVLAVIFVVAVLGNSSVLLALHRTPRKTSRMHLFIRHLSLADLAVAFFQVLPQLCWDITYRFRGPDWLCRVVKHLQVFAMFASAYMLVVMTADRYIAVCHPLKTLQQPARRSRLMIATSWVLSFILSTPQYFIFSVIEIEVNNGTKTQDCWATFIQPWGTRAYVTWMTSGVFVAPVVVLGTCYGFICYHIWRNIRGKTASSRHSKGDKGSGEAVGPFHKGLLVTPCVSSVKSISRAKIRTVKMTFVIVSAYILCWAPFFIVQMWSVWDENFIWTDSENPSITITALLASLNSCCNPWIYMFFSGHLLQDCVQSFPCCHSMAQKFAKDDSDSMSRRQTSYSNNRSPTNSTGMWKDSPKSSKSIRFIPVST

T1 sequence (P30560 whole entry): as the sequence (P30560 whole entry, looked up) above
Chain of Vasopressin V2 receptor (Q00788 whole entry): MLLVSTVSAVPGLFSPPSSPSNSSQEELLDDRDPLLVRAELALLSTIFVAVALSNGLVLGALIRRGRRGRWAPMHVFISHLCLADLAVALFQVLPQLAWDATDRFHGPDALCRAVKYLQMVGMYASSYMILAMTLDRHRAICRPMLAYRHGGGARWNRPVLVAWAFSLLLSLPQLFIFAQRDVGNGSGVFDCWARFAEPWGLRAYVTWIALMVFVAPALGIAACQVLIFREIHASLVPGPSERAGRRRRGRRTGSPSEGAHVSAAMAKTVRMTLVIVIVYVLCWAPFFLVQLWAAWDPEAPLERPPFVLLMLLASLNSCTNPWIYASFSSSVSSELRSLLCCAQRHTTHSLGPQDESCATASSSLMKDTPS
Chain of Vasopressin V2 receptor (Rattus norvegicus) (Q00788 whole entry): as above

Structure (SMILES) | IC50 [1] [nM] | IC50 [2] [nM] | other results
O=C(Nc1ccc(C(=O)N2Cc3cccn3Cc3ccccc32)cc1)c1ccc(F)cc1Cl | 4 | 7 | –
Cc1ccccc1C(=O)Nc1ccc(C(=O)N2c3ccccc3CCc3ccccc32)cc1 | 860 | 2500 | –
Cc1ccc(F)cc1C(=O)Nc1ccc(C(=O)N2Cc3cccn3Cc3ccccc32)cc1 | 1.5 | – | Urine volume [3]: 21.8 ml 4hr-1
Cc1ccccc1C(=O)Nc1ccc(C(=O)N2Cc3ccccc3Nc3ccccc32)cc1 | – | – | Urine volume [4]: 7.4 ml 4hr-1
O=C(Nc1ccc(C(=O)N2Cc3cccn3Cc3ccccc32)cc1)c1ccccc1O | 540 | – | –
Cc1cccc(C(=O)Nc2ccc(C(=O)N3Cc4cccn4Cc4ccccc43)cc2)c1C | 13 | 240 | –
Cc1ccc(F)cc1C(=O)Nc1ccc(C(=O)N2Cc3cccn3Cc3ccccc32)c(Cl)c1 [LIXIVAPTAN] | – | – | Urine volume [3]: 22 ml 4hr-1
Cc1ccccc1C(=O)Nc1ccc(C(=O)N2Cc3ccccc3Oc3ccccc32)cc1 | 1700 | 1500 | –
O=C(Nc1ccc(C(=O)N2Cc3cccn3Cc3ccccc32)cc1)c1ccccc1Cl | – | – | Urine volume [3]: 12.4 ml 4hr-1
Cc1ccccc1C(=O)Nc1ccc(C(=O)N2Cc3ccccc3CCc3ccccc32)cc1 | 50000 | – | inhibition [5]: 80%; IC50 [6]: 50000 nM; inhibition [7]: 60%
O=C(Nc1ccc(C(=O)N2Cc3cccn3Cc3ccccc32)cc1)c1ccccc1Br | 7 | 2 | –
